These results are taken from US20120196915A1, “Antitumor 1,2-Diphenylpyrrole Compounds and their Preparation Process” (ARGON PHARMA, S.L., priority 2009, published 2012).

The test system of one series is CAL51 cell line. Kind of series: Cell viability assay (XTT), CAL51. The series is classed as cell-based. As to conditions: CAL51, 4 h exposure, 20, 40 or 60 μM, in comparison with the comparative compound. Here is the method:
(§1) H-727 and H-460 cell lines, derived from human lung carcinoma, and human prostate carcinoma PC3 cells, were cultured in RPMI 1640 medium supplemented with 10% fetal bovine serum, 1% glutamine and 100 units/ml penicillin/streptomycin (Life Technologies, Inc.). LS174T cells, derived from human colorectal carcinoma, and CAL51 cells, from breast carcinoma, were cultured in DMEM medium supplemented with 10% fetal bovine serum, 1% glutamine and 100 units/ml penicillin/streptomycin (Life Technologies, Inc.). All cell lines were incubated at 37° C. in a humidified atmosphere containing 5% CO2. The stock solution of each compound was reconstituted in DMSO and diluted in culture media before use.
(§2) Antitumor activity was evaluated measuring cell metabolic capacity (viability), using the Cell Proliferation Kit II (XTT) and following the recommendations of the manufacturer (Roche Diagnostics). The assays were carried out in triplicates, with controls containing unexposed cells, cells with vehicle, or media plus compound. Cells were seeded into 96-well plates in 100 μl of media and incubated for 24 h. […] After 4 h of incubation at 37° C., the absorbance at 490 nm was read. The growth inhibitory activity was obtained subtracting the absorbance of the blanks and expressed as percentage of cell growth inhibition, as compared with untreated controls.
On the technique in general: Formazan colour is commonly taken as a measure of viable cells.

The subject of a further series is LS174T cell line. Put plainly: Cell viability assay (XTT), LS174T. The class given is cell-based, human. As to conditions: 4 h exposure, 20, 40 or 60 μM, in comparison with the comparative compound. Here is the method: as §1, §2
For another series, the system named is H-460 cell line. Put plainly: Cell viability assay (XTT), H-460. The class given is cell-based, human. To be noted: H-460, 4 h exposure, 20, 40 or 60 μM, in comparison with the comparative compound. Here is the method: as §1, §2
In the next series the test system is H-727 cell line. Put plainly: Cell viability assay (XTT), H-727. The class given is cell-based, human. Here is the method: as §1, §2
A further series concerns PC3 cell line. Kind of series: Cell viability assay (XTT), PC3. The class given is cell-based, human. To be noted: PC3, 4 h exposure, 20, 40 or 60 μM, in comparison with the comparative compound. Here is the method: as §1, §2

The structures appear in SMILES notation.

Turning to `NS(=O)(=O)c1ccc(-n2cc(C(F)(F)F)cc2-c2cc(C(F)(F)F)cc(C(F)(F)F)c2)cc1` [Example 2, 4-[2-(3,5-Bis(trifluoromethyl)phenyl)-4-(trifluoromethyl)-1H-pyrrol-1-yl]benzenesulfonamide], the tumor cell viability entry in the series with CAL51 cell line is reported as “significantly reduced tumor cell viability”; with LS174T cell line, “significantly reduced tumor cell viability”; in the series with H-460 cell line, “significantly reduced tumor cell viability”; with H-727 cell line (H-727, 4 h exposure, 20, 40 or 60 μM, in comparison with the comparative compound), “significantly reduced tumor cell viability”; in the series on PC3 cell line it was “significantly reduced tumor cell viability”. Also, in the series on H-727 cell line (H-727, at 40 μm, 4 h, as compared to the comparative example), the “reduction in the tumor cell viability percentage” value is listed as “more than 50%”.
